This passage reports IC50 results from BindingDB's records for doi:10.1021/acs.jmedchem.9b00506 (Rapt Therapeutics, 2019).

SMILES strings stand for the structures.

One test in a line: Antagonist activity at CCR4 in human CCRF-CEM cells assessed as inhibition of CCL22-mediated chemotaxis in presence of 100% human serum pre-incubated for 30 mins followed by CCL22 addition and measured after 60 mins by chemoTX probe based CellTiter-Glo assay.
On to `C[C@@H]1CC(c2cnc3c(C#N)nn([C@H](C)c4ccc(Cl)cc4Cl)c3n2)=CC[C@@H]1N1CCC[C@H]1C(N)=O`, for which the half-inhibitory concentration (IC50) worked out at 1380 nM.

`Cc1nn([C@H](C)c2ccc(Cl)cc2Cl)c2nc(N3CC[C@H](N4CCC[C@H]4CCC(N)=O)[C@H](C)C3)cnc12`: the IC50 came out at 355 nM.

On to `C[C@@H]1CC(c2cnc3c(C#N)nn([C@H](C)c4ccc(Cl)cc4Cl)c3n2)=CC[C@@H]1N1CCC[C@H]1CN`, for which the IC50 was determined as 638 nM.

Turning to `C[C@@H]1CC(c2cnc3c(C#N)nn([C@H](C)c4ccc(Cl)cc4Cl)c3n2)=CC[C@@H]1N1CCC[C@H]1CO`, the IC50 was determined as 70 nM.

For `C[C@@H]1CC(c2cnc3c(C#N)nn([C@H](C)c4ccc(Cl)cc4Cl)c3n2)=CC[C@@H]1N1CCC[C@H]1C`, the 50% inhibitory concentration (IC50) amounted to 44 nM.

Regarding `Cc1nn([C@H](C)c2ccc(Cl)cc2Cl)c2nc(C3=CC[C@H](N4CCC[C@H]4CO)[C@H](C)C3)cnc12`, the half-maximal inhibitory concentration (IC50) worked out at 179 nM.

`Cc1nn([C@H](C)c2ccc(Cl)cc2Cl)c2nc(N3CC[C@H](N4CCCCC4)[C@H](C)C3)cnc12`: the 50% inhibitory concentration (IC50) turned out to be 361 nM.

Consider `Cc1nn([C@H](C)c2ccc(Cl)cc2Cl)c2nc(N3CC[C@H](N4CCC[C@H]4CCS(N)(=O)=O)[C@H](C)C3)cnc12`, for which the IC50 came out at 259 nM.

For `Cc1nn([C@H](C)c2ccc(Cl)cc2Cl)c2nc(N3CC[C@H](N4CCC[C@H]4CCC#N)[C@H](C)C3)cnc12`, the IC50 stood at 865 nM.

Regarding `C[C@@H]1CC(c2cnc3c(C#N)nn([C@H](C)c4ccc(Cl)cc4Cl)c3n2)=CC[C@@H]1N1CCC[C@H]1C(C)(C)O`, the half-maximal inhibitory concentration (IC50) was 1200 nM.

The nature of another test: Antagonist activity at CCR4 in anti-CD3/CD28 stimulated mouse Treg cells assessed as inhibition of CCL22-mediated chemotaxis in presence of 100% human serum pre-incubated for 30 mins followed by CCL22 addition and measured after 60 mins by chemoTX probe based CellTiter-Glo assay.
Turning to `C[C@@H]1CC(c2cnc3c(C#N)nn([C@H](C)c4ccc(Cl)cc4Cl)c3n2)=CC[C@@H]1N1CCC[C@H]1CO`, the half-inhibitory concentration (IC50) turned out to be 165 nM.

With `C[C@@H]1CC(c2cnc3c(C#N)nn([C@H](C)c4ccc(Cl)cc4Cl)c3n2)=CC[C@@H]1N1CCC[C@H]1C`, the IC50 is 325 nM.
